Structures can show the parent of a compound that is named as a salt. Marks after values point to notes of the source that are not given here.
Tested on: Experimental autoimmune uveitits (EAU)
Assay: Experimental autoimmune uveitits (EAU) test in rats
Format: in vivo, LEWIS rats
Settings: for EAU 1st: Day of first signs of EAU (mean±SD) / EAU 10: Incidence of EAU on day 10 (affected animals/animals per group) / EAU POS: Number of EAU positive rats (affected animals/animals per group until end of the study) / SCORE MAX DAY: day of maximum score / SCORE MAX SCORE: Maximum score (mean of both eye lesions±SD): oral once daily; for course and intensity of the disease compared with placebo controls: oral, 0.1 mg/kg compound of formula IIa or 15 mg/kg/day compound of formula I alone, combination at the same dosage levels
[1] = Example 1, 5 rats per group, 14 days, Dosis mg/kg/day: Cpd IIa 0.1, Cpd I 15, combination 1.5 [sic] + 15
[2] = Example 1, 14 days, Dosis mg/kg/day: Cpd IIa 0.1, Cpd I 15, combination 1.5 [sic] + 15
[3] = Example 1, scores 0 to 4 for 1 eye, 14 days, Dosis mg/kg/day: Cpd IIa 0.1, Cpd I 15, combination 1.5 [sic] + 15
[4] = Example 2, 6 rats per group, 14 days (14×), mg/kg/day: Cpd IIa 0.1, Cpd I 15, combination 15 + 0.1

Structure (SMILES)	EAU 1st: Day of first signs of EAU (mean±SD) [1]	EAU 10: Incidence of EAU on day 10 (affected animals/animals per group) [1]	EAU POS: Number of EAU positive rats (affected animals/animals per group until end of the study) [1]	SCORE MAX DAY: day of maximum score [2]	course and intensity of the disease compared with placebo controls (Example 1)	SCORE MAX SCORE: Maximum score (mean of both eye lesions±SD) [3]	EAU 1st: Day of first signs of EAU (mean±SD) [4]	EAU 10: Incidence of EAU on day 10 (affected animals/animals per group) [4]	EAU POS: Number of EAU positive rats (affected animals/animals per group until end of the study) [4]	SCORE MAX DAY: day of maximum score [4]	SCORE MAX SCORE: Maximum score (mean of both eye lesions±SD) [4]
CC[C@@H]1/C=C(\C)C[C@H](C)C[C@H](OC)[C@H]2O[C@@](O)(C(=O)C(=O)N3CCCC[C@H]3C(=O)O[C@H](/C(C)=C/[C@@H]3CC[C@H](Cl)[C@H](OC)C3)[C@H](C)[C@@H](O)CC1=O)[C@H](C)C[C@@H]2OC [Cpd I, 33-epi-33-chloro-FR 520]	11.8 (1.3) day	1/5	5/5	14 days	not distinctively different from placebo controls	6.8 (1.3)	11.5 (0.8) day	2/6	6/6	14 days	6.0 (2.5)
CCCCCCCCc1ccc(CCC(N)(CO)CO)cc1 [Cpd IIa, 2-amino-2[2-(4-octylphenyl)ethyl]propane-1,3-diol hydrochloride]	10.5 (0.6) day	2/5	4/4*^)	13 days	not distinctively different from placebo controls	8.0 (0.0)	11.2 (1.0) day	0/6	6/6	14 days	8.0 (0.0)

— US7259170B2, “Macrolides containing pharmaceutical compositions” (Novartis AG, priority 2001, dated 2007)
